Organism: Rattus norvegicus
Experiment: Open TG-GATES - Regimen: Single
Type: toxicity, organism-based, Sprague-Dawley
Set-up: regimen Single, gender Male, age 6 weeks
Settings: in vivo, po, 10 mg/kg, route gavage, dose level Middle; for APTT / Bas / Eos / Fbg / Hb / Ht / Lym / MCH / MCHC / MCV / Mono / Neu / PT / Plat / RBC / Ret / WBC: tissue Blood; for KIDNEY_L / KIDNEY_R / KIDNEY_TOTAL: tissue Kidney; for LIVER: tissue Liver; for A/G / ALP / ALT / AST / BUN / CRE / Ca / Cl / DBIL / GLC / IP / K / LDH / Na / PL / RALB / TBIL / TC / TG / TP / gamma-GTP: tissue Plasma

Molecule `Nc1c2c(nc3ccccc13)CCCC2` [TACRINE] has a TERMINAL_BW (3 h) of 204.5 g, an APTT (3 h) of 22.1 s and a Bas (3 h) of 0%. It also gave an Eos (3 h) of 0.8%, a Fbg (3 h) of 297.8 mg/dL and a Hb (3 h) of 13.3 g/dL. For the same molecule, the Ht (3 h) was 38.8%, the Lym (3 h) was 70% and the MCH (3 h) was 21.2 pg. The MCHC (3 h) was 34.4%, the MCV (3 h) was 61.5 fL and the Mono (3 h) was 2.2%. It also gave a Neu (3 h) of 26.8%, a PT (3 h) of 16.5 s and a Plat (3 h) of 123.9 x10_4/uL. For the same molecule, the RBC (3 h) was 630.4 x10_4/ul, the Ret (3 h) was 8.5% and the WBC (3 h) was 68 x10_2/uL. It also gave a KIDNEY_L (3 h) of 0.9 g, a KIDNEY_R (3 h) of 0.9 g and a KIDNEY_TOTAL (3 h) of 1.8 g. For the same molecule, the LIVER (3 h) was 9.4 g, the A/G (3 h) was 1.3 and the ALP (3 h) was 1472.8 IU/L. It also gave an ALT (3 h) of 45 IU/L, an AST (3 h) of 90.4 IU/L and a BUN (3 h) of 11.8 mg/dL. The CRE (3 h) was 0.2 mg/dL, the Ca (3 h) was 10.6 mg/dL and the Cl (3 h) was 106.4 meq/L. It also gave a DBIL (3 h) of 0.006 mg/dL, a GLC (3 h) of 213.4 mg/dL and an IP (3 h) of 8.7 mg/dL. It also gave a K (3 h) of 3.7 meq/L, an LDH (3 h) of 205.8 IU/L and a Na (3 h) of 141.8 meq/L. It also gave a PL (3 h) of 140.4 mg/dL, an RALB (3 h) of 3.2 g/dL and a TBIL (3 h) of 0.03 mg/dL. The TC (3 h) was 74.6 mg/dL, the TG (3 h) was 66.6 mg/dL and the TP (3 h) was 5.8 g/dL. The gamma-GTP (3 h) was 1 IU/L, the TERMINAL_BW (6 h) was 199.6 g and the APTT (6 h) was 19.8 s. The Bas (6 h) was 0%, the Eos (6 h) was 0.6% and the Fbg (6 h) was 317.2 mg/dL. It also gave a Hb (6 h) of 13.6 g/dL, a Ht (6 h) of 39.5% and a Lym (6 h) of 75.4%. The MCH (6 h) was 21 pg, the MCHC (6 h) was 34.4% and the MCV (6 h) was 60.8 fL. For the same molecule, the Mono (6 h) was 2%, the Neu (6 h) was 21.2% and the PT (6 h) was 15.6 s. It also gave a Plat (6 h) of 119.2 x10_4/uL, an RBC (6 h) of 649.6 x10_4/ul and a Ret (6 h) of 7.8%. The WBC (6 h) was 74.9 x10_2/uL, the KIDNEY_L (6 h) was 0.9 g and the KIDNEY_R (6 h) was 0.9 g. The KIDNEY_TOTAL (6 h) was 1.8 g, the LIVER (6 h) was 8.5 g and the A/G (6 h) was 1.3. For the same molecule, the ALP (6 h) was 1669.4 IU/L, the ALT (6 h) was 41.8 IU/L and the AST (6 h) was 82.4 IU/L. The BUN (6 h) was 10.6 mg/dL, the CRE (6 h) was 0.2 mg/dL and the Ca (6 h) was 10.6 mg/dL. The Cl (6 h) was 107.4 meq/L, the DBIL (6 h) was 0.002 mg/dL and the GLC (6 h) was 201.2 mg/dL. The IP (6 h) was 8.8 mg/dL, the K (6 h) was 4.4 meq/L and the LDH (6 h) was 290.6 IU/L. For the same molecule, the Na (6 h) was 141.8 meq/L, the PL (6 h) was 161 mg/dL and the RALB (6 h) was 3.1 g/dL. It also gave a TBIL (6 h) of 0.028 mg/dL, a TC (6 h) of 82.2 mg/dL and a TG (6 h) of 50.8 mg/dL. It also gave a TP (6 h) of 5.5 g/dL, a gamma-GTP (6 h) of 1 IU/L and a TERMINAL_BW (9 h) of 197 g. It also gave an APTT (9 h) of 21.5 s, a Bas (9 h) of 0% and an Eos (9 h) of 1%. It also gave a Fbg (9 h) of 312.4 mg/dL, a Hb (9 h) of 13.4 g/dL and a Ht (9 h) of 38.9%. For the same molecule, the Lym (9 h) was 76.2%, the MCH (9 h) was 21.4 pg and the MCHC (9 h) was 34.5%. The MCV (9 h) was 61.9 fL, the Mono (9 h) was 2.2% and the Neu (9 h) was 20%. The PT (9 h) was 15.9 s, the Plat (9 h) was 119.1 x10_4/uL and the RBC (9 h) was 628.6 x10_4/ul. The Ret (9 h) was 7.5%, the WBC (9 h) was 74.6 x10_2/uL and the KIDNEY_L (9 h) was 0.9 g. For the same molecule, the KIDNEY_R (9 h) was 0.9 g, the KIDNEY_TOTAL (9 h) was 1.8 g and the LIVER (9 h) was 8.3 g. For the same molecule, the A/G (9 h) was 1.3, the ALP (9 h) was 1332.6 IU/L and the ALT (9 h) was 42.6 IU/L. The AST (9 h) was 86.8 IU/L, the BUN (9 h) was 11.8 mg/dL and the CRE (9 h) was 0.1 mg/dL. For the same molecule, the Ca (9 h) was 10.7 mg/dL, the Cl (9 h) was 107.4 meq/L and the DBIL (9 h) was 0.004 mg/dL. It also gave a GLC (9 h) of 183.8 mg/dL, an IP (9 h) of 9.7 mg/dL and a K (9 h) of 4.2 meq/L. For the same molecule, the LDH (9 h) was 186.8 IU/L, the Na (9 h) was 142.2 meq/L and the PL (9 h) was 137.8 mg/dL. For the same molecule, the RALB (9 h) was 3.1 g/dL, the TBIL (9 h) was 0.026 mg/dL and the TC (9 h) was 77 mg/dL. The TG (9 h) was 43.6 mg/dL, the TP (9 h) was 5.5 g/dL and the gamma-GTP (9 h) was 1 IU/L. For the same molecule, the TERMINAL_BW (24 h) was 217.1 g, the APTT (24 h) was 21.1 s and the Bas (24 h) was 0%. The Eos (24 h) was 1%, the Fbg (24 h) was 305 mg/dL and the Hb (24 h) was 13.5 g/dL. For the same molecule, the Ht (24 h) was 39.3%, the Lym (24 h) was 79% and the MCH (24 h) was 21.2 pg. It also gave an MCHC (24 h) of 34.4%, an MCV (24 h) of 61.6 fL and a Mono (24 h) of 3%. The Neu (24 h) was 15.8%, the PT (24 h) was 15.9 s and the Plat (24 h) was 116.9 x10_4/uL. The RBC (24 h) was 638 x10_4/ul, the Ret (24 h) was 7.4% and the WBC (24 h) was 98.6 x10_2/uL. The KIDNEY_L (24 h) was 1 g, the KIDNEY_R (24 h) was 1 g and the KIDNEY_TOTAL (24 h) was 2 g. For the same molecule, the LIVER (24 h) was 9.7 g, the A/G (24 h) was 1.3 and the ALP (24 h) was 1669.4 IU/L. It also gave an ALT (24 h) of 40.4 IU/L, an AST (24 h) of 77.2 IU/L and a BUN (24 h) of 17 mg/dL. It also gave a CRE (24 h) of 0.2 mg/dL, a Ca (24 h) of 11 mg/dL and a Cl (24 h) of 106 meq/L. For the same molecule, the DBIL (24 h) was 0.004 mg/dL, the GLC (24 h) was 183 mg/dL and the IP (24 h) was 7.9 mg/dL. It also gave a K (24 h) of 4.3 meq/L, an LDH (24 h) of 229 IU/L and a Na (24 h) of 141.4 meq/L. It also gave a PL (24 h) of 161.6 mg/dL, an RALB (24 h) of 3.1 g/dL and a TBIL (24 h) of 0.022 mg/dL. It also gave a TC (24 h) of 81 mg/dL, a TG (24 h) of 97 mg/dL and a TP (24 h) of 5.5 g/dL. For the same molecule, the gamma-GTP (24 h) was 1 IU/L.

From ChEMBL document CHEMBL3885861, “Open TG-GATES”
